Test results from patent publication US6528455B1, “Phenoxy-and thiophenoxy acrylic acid compounds as herbicides” (BASF Aktiengesellschaft, priority 1999, dated 2003).

System: dicotyledonous harmful plants (ABUTH, AMARE, IPOSS, SOLNI)
Experiment: Greenhouse experiment, post-emergence treatment: herbicidal action
Assay type: in vivo
Conditions: application rates of 3.9 and 1.95 g/ha of a.s., 2 to 4 weeks
Description: The test period extended over 2 to 4 weeks.

## 3-(4-Chloro-2-fluoro-5-(1-methoxycarbonyl-1-vinyloxy)phenyl)-1-methyl-6-trifluoromethyl-2,4-(1H, 3H)pyrimidinedione [Example 2]
  herbicidal effect on dicotyledonous harmful plants compared with Comparative Example A: at least as good a herbicidal effect
